Patent US12440469B2, “P-gp inducers as protectors against chemotherapy-induced side effects, such as peripheral neuropathy (CIPN) and hair loss” (Syddansk Universitet, priority 2019, dated 2025)
Each block holds one molecule with its values, some of them ahead of it.

Tests used:
[1] = tested on: iPSC-derived sensory neurons; assay: Vincristine neurotoxicity in iPSC-derived sensory neurons with or without MK-571 or rifampicin; format: cell-based, human
Description: Sensory neurons were generated from human induced pluripotent stem cells (iPSCs) by implementing the well-established protocol by Chambers et. al. (Nat Biotech 2012). The neuronal differentiation was initiated when iPSCs achieved 70-80% confluency using KSR medium, which contained 82% KnockOut DMEM (Gibco, 10829-018) and 15% KnockOut Serum Replacement (KSR, ThermoFisher, 10828-028), 1% GlutaMAX-I (Gibco, 35050-038), 1% mini-mum essential medium non-essential amino acids (MEM-NEAA, Gibco, 11140-035), 1% P/S and 0.055 mM β-mercaptoethanol (Gibco, 21985023).
On days 0-5, SMAD signaling was inhibited by adding 0.1 μM LDN-193189 (Selleck, S7507) and 10 μM SB-431542 (Selleck, S1067) to the medium. Medium was changed daily, and N2 medium was added with 25% increments every other day starting on day 4 (100% N2 on day 10). N2 medium consists of 97% Neurobasal medium (Gibco, 21103-049) with 1% N2 Supplement (Gibco, 17502-048), 1% B27 Supplement (Gibco, 17504-044) and 1% P/S. On days 2-10, nociceptor induction was initiated with the addition of the three inhibitors, 3 μM CHIR99021 (Selleck, S1263), 10 μM SU5402 (Selleck, S7667) and 10 μM DAPT (Selleck, S2215).
For long-term cultivation starting on day 12, cells were washed with PBS÷ and incubated with Accutase for 30 min to obtain a single-cell suspension. After incubation, the culture plates were gently rocked and cellular clumps were mechanically dissociated by pipetting up and down. The cells were filtered through a 40 μm nylon cell strainer (Corning, 431750) and centrifuged (800 rpm, 5 min, RT). Following resuspension of the pellet, iPSC-SNs were seeded as single cells on PLO/LAM/FN-coated culture plates at a density of 150,000 viable cells/cm^2. […]
Cells were treated with vincristine from 0.001-1 μM for 24 hours and immunolabeled with peripherin antibody. Quantification of network was done using ImageJ and MIPAR. […]

SH-SY5Y-derived neurons [2] = assay: Neurite number and length in differentiated SH-SY5Y cells after paclitaxel with or without valspodar
Description: (§1) SH-SY5Y cells (94030304, Sigma-Aldrich) were kept in DMEM/F:12 (11320074, ThermoFisher) with 15% heat-inactivated fetal bovine serum (hiFBS, F9665 Sigma-Aldrich), 1% penicillin/streptomycin (p/s) and 2 mM glutamine. Cells were split 1:10-1:20 using 0.05% trypsin-EDTA (10779413, Fisher Scientific) at 70-80% confluence.
(§2) Paclitaxel (T7402, Sigma-Aldrich) was diluted serially in DMSO (D2650, Sigma-Aldrich) and these stock solutions diluted 1:500 to ensure 0.2% DMSO in all samples. […] Valspodar (SML0572, Sigma-Aldrich) were used at a final concentration of 4 μM. Antibody against TUBB3 (MA1-118, ThermoFisher Scientific) was used at 1:1000.
(§3) Briefly, SH-SY5Y cells below passage 15 were seeded at 5-6×10^3 cells/cm^2 in uncoated 6-well plates (day 0 (D0)) and left overnight in growth media. The next day (D1) differentiation was initiated using DMEM/F:12 media with 2.5% hiFBS, 1% p/s, 2 mM glutamine and 10 μM retinoic acid (RA, R2625 Sigma-Aldrich) and media was replaced at D3 and D5. On D7 cells were split 1:1 using 0.05% trypsin-EDTA to uncoated dishes and on D8 hiFBS content was reduced to 1%. On D10 the cells were split 1:1 to extracellular matrix-coated dishes (E0282, Sigma-Aldrich). On D11 media was replaced with the final differentiation media containing neurobasal media (21103049, ThermoFisher) with 1×B27 supplement (17504044, ThermoFisher), 20 mM KCl (10697623, Fisher Scientific), 1% p/s, 1× Glutamax, 50 ng/ml brain-derived neurotrophic factor (BDNF, CST-3897S, Peprotech), 2 mM dibutyryl cyclic AMP (db-cAMP, D0627 Sigma-Aldrich) and 10 μM RA. Media was replaced on D14 and D17 and cells were tested and confirmed as fully differentiated on D18 and used for downstream applications as outlined below.
(§4) Both differentiated and undifferentiated SH-SY5Y cells were fixed using 4% paraformaldehyde. Cells were permeabilized using 0.25% Triton X-100 and unspecific binding was blocked using bovine serum albumin (BSA). Primary antibodies were incubated overnight at 4° C. and secondary antibodies were incubated for one hour at room temperature. Nuclei were stained using 1.5 μM DAPI for 5 minutes. Imaging was performed using a Leica DMI4000B microscope. Neurite morphology was assessed using the ImageJ modules CellCounter and Simple Neurite Tracer. To determine number of neurites per cell, CellCounter was used to count the number of cells with 0, 1, 2 . . . n neurites. Neurite length was determined using Simple Neurite Tracer. For both endpoints, at least five images of each condition from three separate differentiations were used. ImageJ analysis was blinded to the person assessing length and number of neurites to ensure no bias. […]

SH-SY5Y-derived neurons [3] = tested on: SH-SY5Y-derived neurons
Description: as §1, §2, §3, §4

TRPV1 = TRPV1 expression in iPSC-derived sensory neurons (RT-qPCR); format: cell-based, human; conditions: paclitaxel, dose-dependent
Description: (§5) Induced pluripotent stem cells were differentiated to sensory neurons for 35-40 days as described above. Rifampicin was added 48 hours ahead of paclitaxel to increase expression of efflux transporters. Expression levels was determined using real-time qualitative polymerase chain reaction (RT-qPCR) for TRPV1 and ATF-3.

[4] = tested on: sensory neurons derived from induced pluripotent stem cells; assay: Paclitaxel damage in iPSC-derived sensory neurons, peripherin immunolabelling; format: cell-based, human; conditions: paclitaxel 24 hours
Description: Cells were treated with paclitaxel for 24 hours and immunolabeled using an antibody for peripherin.
Cells were pretreated for 48 hours with 25 μM rifampicin prior to addition of paclitaxel treatment.

P-gp = target: T1, P-gp (Homo sapiens, UniProt P08183); assay: Intracellular paclitaxel concentration (LC-MS/MS) in differentiated SH-SY5Y cells under P-gp inhibition; format: cell-based; conditions: 10 μM paclitaxel, 1 hour, P-gp inhibition by 4 μM valspodar, p<0.001
T1 construct: indicated expression of the efflux transporters P-gp and MRP1 in both SH-SY5Y cells and human dorsal root ganglion; endogenous in cells; host or cells: differentiated SH-SY5Y cells (neurons)
T1 sequence (P08183 whole entry): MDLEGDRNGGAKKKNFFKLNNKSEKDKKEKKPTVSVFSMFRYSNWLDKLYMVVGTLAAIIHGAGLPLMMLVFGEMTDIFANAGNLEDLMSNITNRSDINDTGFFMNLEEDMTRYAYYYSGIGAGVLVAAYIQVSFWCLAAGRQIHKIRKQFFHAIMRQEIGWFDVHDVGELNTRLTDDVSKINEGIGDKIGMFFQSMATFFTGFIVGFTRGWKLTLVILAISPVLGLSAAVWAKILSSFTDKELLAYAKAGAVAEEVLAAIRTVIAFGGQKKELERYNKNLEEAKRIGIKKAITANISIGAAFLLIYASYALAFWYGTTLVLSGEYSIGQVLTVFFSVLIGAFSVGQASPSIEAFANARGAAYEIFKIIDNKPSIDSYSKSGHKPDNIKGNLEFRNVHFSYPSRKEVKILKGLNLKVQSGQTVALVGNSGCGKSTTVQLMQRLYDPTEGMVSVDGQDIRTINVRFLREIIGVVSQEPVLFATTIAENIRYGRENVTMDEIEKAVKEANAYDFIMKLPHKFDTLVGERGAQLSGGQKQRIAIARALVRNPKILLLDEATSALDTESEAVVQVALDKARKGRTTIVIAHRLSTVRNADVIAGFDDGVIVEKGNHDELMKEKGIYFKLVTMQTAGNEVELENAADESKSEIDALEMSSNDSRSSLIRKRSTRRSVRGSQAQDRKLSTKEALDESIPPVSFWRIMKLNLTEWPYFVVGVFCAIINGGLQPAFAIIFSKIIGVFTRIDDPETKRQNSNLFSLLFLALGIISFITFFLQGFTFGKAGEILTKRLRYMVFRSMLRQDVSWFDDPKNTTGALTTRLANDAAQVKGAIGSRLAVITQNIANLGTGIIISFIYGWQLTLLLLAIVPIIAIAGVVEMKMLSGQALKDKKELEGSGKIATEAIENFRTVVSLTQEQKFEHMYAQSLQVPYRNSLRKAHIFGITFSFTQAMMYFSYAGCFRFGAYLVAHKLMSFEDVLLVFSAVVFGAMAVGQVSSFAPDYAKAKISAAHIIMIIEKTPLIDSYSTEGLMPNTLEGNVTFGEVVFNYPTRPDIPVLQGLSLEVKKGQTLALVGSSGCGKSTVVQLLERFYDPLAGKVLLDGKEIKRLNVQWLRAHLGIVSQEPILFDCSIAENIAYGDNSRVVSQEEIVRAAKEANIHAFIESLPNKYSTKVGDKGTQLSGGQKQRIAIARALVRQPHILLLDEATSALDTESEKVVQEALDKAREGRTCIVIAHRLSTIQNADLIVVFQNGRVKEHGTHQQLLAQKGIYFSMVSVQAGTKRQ

ATF-3 = ATF-3 expression in iPSC-derived sensory neurons (RT-qPCR); format: cell-based, human; conditions: paclitaxel, dose-dependent
Description: as §5

[5] = tested on: paclitaxel treated patients with breast or ovarian cancer; assay: Paclitaxel dose modification due to peripheral neuropathy in patients using P-gp inhibitors (logistic regression); format: in vivo, human; conditions: for Multivariate analysis Odds-ratio of paclitaxel dose modification due to peripheral neuropathy: adjusted for age, body surface, tumor type, cancer stage, treatment schedule and previous chemotherapy; for Univariate analysis Odds-ratio of paclitaxel dose modification due to peripheral neuropathy: concomitant use with paclitaxel, 503 patients database; for increased risk of dose modification due to peripheral neuropathy: paclitaxel-treated patients, text summary of the multivariate analysis
Description: Data were log-transformed to ensure normality of data.
To assess if P-gp inhibition leads to increased risk of peripheral neuropathy we used a previously described database of 503 paclitaxel treated patients with breast or ovarian cancer (Sanchez-Barroso L et al. The Oncologist. 2018 Nov. 23). […] P-gp inhibitors were selected based on two literature reviews (see comments under table 1). From these reviews, we identified drugs listed as P-gp inhibitors (drugs classified as inhibitor in either review), and, within these, strong P-gp inhibitors (drugs classified as inhibitor in both reviews).
The association from univariate and multivariate analysis between paclitaxel dose modification due to peripheral neuropathy and concomitant P-gp inhibitor use is shown in Table 1.

[6] = vincristine 0.001-1 μM, 24 hours

Compound: CC[C@]1(O)C[C@H]2CN(CCc3c([nH]c4ccccc34)[C@@](C(=O)OC)(c3cc4c(cc3OC)N(C=O)[C@H]3[C@@](O)(C(=O)OC)[C@H](OC(C)=O)[C@]5(CC)C=CCN6CC[C@]43[C@@H]65)C2)C1 [vincristine]
neurite length [1, 6]: shortened in a dose-dependent manner | number of neurites extending from a cluster of sensory neurons [1, 6]: dose-dependent decrease

Compound: C/C=C/C[C@@H](C)C(=O)[C@H]1C(=O)N[C@@H](C(C)C)C(=O)N(C)CC(=O)N(C)[C@@H](CC(C)C)C(=O)N[C@@H](C(C)C)C(=O)N(C)[C@@H](CC(C)C)C(=O)N[C@@H](C)C(=O)N[C@H](C)C(=O)N(C)[C@@H](CC(C)C)C(=O)N(C)[C@@H](CC(C)C)C(=O)N(C)[C@@H](C(C)C)C(=O)N1C [valspodar]
effect on neuronal morphology without paclitaxel present (SH-SY5Y-derived neurons [2]; 4 μM valspodar alone): did not affect | effect on neuronal toxicity of paclitaxel (number and length of neurites) (SH-SY5Y-derived neurons [2]; 4 μM valspodar together with paclitaxel, 24 hours, ANOVA p<0.001): substantially exacerbated

Compound: CN(C)C(=O)CCSC(SCCC(=O)O)c1cccc(/C=C/c2ccc3ccc(Cl)cc3n2)c1 (centres unmarked) [MK-571]
effect of MRP1 inhibition on vincristine neurotoxicity ([1]; 4 μM MK-571 one hour ahead of vincristine, low vincristine concentrations): substantially increased neurotoxicity

Compound: CCC(C)(C)C(=O)O[C@H]1C[C@@H](C)C=C2C=C[C@H](C)[C@H](CC[C@@H]3C[C@@H](O)CC(=O)O3)[C@H]21 [Simvastatin]
Multivariate analysis Odds-ratio of paclitaxel dose modification due to peripheral neuropathy [5]: 0.31 | Univariate analysis Odds-ratio of paclitaxel dose modification due to peripheral neuropathy [5]: 0.60 | increased risk of dose modification due to peripheral neuropathy [5]: not at increased risk

Continued, in another order:

neurite length (SH-SY5Y-derived neurons [3]): significantly reduced | number of neurites (SH-SY5Y-derived neurons [3]): significantly reduced | TRPV1 expression (TRPV1): substantially increased expression | increase in intracellular accumulation of paclitaxel on inhibition of P-gp (P-gp): > 3 fold | ATF-3 expression (ATF-3): substantially increased expression
Compound: CC(=O)O[C@H]1C(=O)[C@@]2(C)[C@H]([C@H](OC(=O)c3ccccc3)[C@]3(O)C[C@H](OC(=O)[C@H](O)[C@@H](NC(=O)c4ccccc4)c4ccccc4)C(C)=C1C3(C)C)[C@]1(OC(C)=O)CO[C@@H]1C[C@@H]2O [Paclitaxel]
damage to sensory neurons [4]: marked damage

Multivariate analysis Odds-ratio of paclitaxel dose modification due to peripheral neuropathy [5]: 7.01 | Univariate analysis Odds-ratio of paclitaxel dose modification due to peripheral neuropathy [5]: 9.41 | increased risk of dose modification due to peripheral neuropathy [5]: 7.0 fold
Compound: CC(C)c1c(C(=O)Nc2ccccc2)c(-c2ccccc2)c(-c2ccc(F)cc2)n1CC[C@@H](O)C[C@@H](O)CC(=O)O [Atorvastatin]
